# Reference: patent US11439640B2, “Pharmaceutical composition comprising substance inhibiting enzymatic activity of peroxiredoxin 2 as effective ingredient for treatment of colorectal cancer” (EWHA UNIVERSITY-INDUSTRY COLLABORATION FOUNDATION, priority 2017, dated 2022)
# Residues, ends and D or L forms follow the SMILES beside them. *: point of attachment. Cbz = O=C(OCc1ccccc1)*
# Assays:
# [1] = tested on: Axin1-related destruction complex; assay: Co-immunoprecipitation of Axin1-related destruction complex; format: cell-based, human; conditions: SW480 cells; FIG. 34
# Protocol: (§1) For immunoprecipitation, purified cell lysates (0.5-1 mg of proteins) were removed in advance with 30 μL of protein-A/G Sepharose 4 Fast Flow beads (Amersham Biosciences) for one hour.
# (§2) Supernatants (cultures floating on the surface) were incubated with 3 μg of an appropriate antibody overnight, and then, precipitated by mixing with 30 μL of protein-A/G beads at 4° C. for three hours.
# (§3) Then, the beads were washed three times with 1 mL of lysis buffer, followed by in vitro PARP analysis or immunoblotting.
# [2] = tested on: RKO cells; assay: Colony forming assay in RKO cells; format: cell-based, human; conditions: APC wild-type CRC cells
# [3] = tested on: SW480 cells; assay: Colony forming assay in SW480 cells; format: cell-based, human; conditions: APC-mutant CRC cells
# [4] = tested on: tumor xenograft derived from HT29; assay: HT29 tumor xenograft in mice (luminescence imaging, tumor weight); format: in vivo, mouse; conditions: intraperitoneal, 286 μM in DMSO, from 6 days after cell injection, every 3 days; FIGS. 65 and 66
# Protocol: In the case of a tumor xenograft model, the mice were anesthetized by the inhalation of isoflurane gas (N2O:O2/70%:30%) and subcutaneously injected with HT29-luc2 cells (2.5×10^5 cells) suspended in 200 μL of PBS. Compound 1 to Compound 6 (286 μM in DMSO) were intraperitoneal administered starting from 6 days after the cell injection and repeated every 3 days.
# Bioluminescent imaging was performed with IVIS Lumina Series III (Perkin Elmer). For each image photographing session, luciferin suspended in PBS (150 mg of luciferin/kg body weight) was administered intraperitoneally according to the manufacturer's protocol.
# Up to four animals were maintained in the integral anesthetic manifold equipment and they were imaged 10 minutes after luciferin injection. The IVIS imaging system collects the photographic images of mice and quantitative bioluminescent signals therefrom and then allows them to overlap with each another.
# [5] = tested on: HT29 cells; assay: Colony forming assay in HT29 cells; format: cell-based, human; conditions: APC-mutant CRC cells
# [6] = target: T1, recombinant human PrxI (Homo sapiens, UniProt Q06830); assay: Peroxiredoxin (peroxidase) assay, PrxI; format: biochemical
# T1 sequence (Q06830 1-199): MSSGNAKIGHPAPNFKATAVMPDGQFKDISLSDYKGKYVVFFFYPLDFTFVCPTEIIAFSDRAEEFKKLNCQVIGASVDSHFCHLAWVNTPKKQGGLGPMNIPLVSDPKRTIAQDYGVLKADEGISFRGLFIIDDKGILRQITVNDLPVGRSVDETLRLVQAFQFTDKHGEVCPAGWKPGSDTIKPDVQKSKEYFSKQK
# Protocol: The peroxidase assay was performed in a reaction mixture (200 μL) containing 250 μM NADPH, 1.5 μM yeast TR, 3 μM yeast Trx, a recombinant human Prx (PrxI (4.6 μM) and PrxII (16.4 μM)), and […] (pH 7.0) containing 1 mM EDTA, and […] H2O2.
# The mixture (minus H2O2) was preincubated for 5 minutes in the presence or absence of Compounds 1 to 6 (100 μM), and then, the reaction was initiated by adding H2O2. NADPH oxidation was monitored at 30° C. for 5 minutes as the absorbance decreased near 340 nm using an Agilent UV8453 spectrophotometer (Hewlett Packard. USA). The initial reaction rate was calculated using the linear portion of the curve and indicated as the amount of oxidized NADPH per minute.
# [7] = target: GST-TNKS1 PARP protein (Homo sapiens, UniProt O95271); conditions: 500 μM H2O2 for 30 minutes; FIG. 49
# Protocol: Zinc ions were observed using 4-(2-pyridylazo) resorcinol (PAR) in an aqueous solution.
# The GST-TANK1 PARP protein was incubated with 500 μM H2O2 for 30 minutes in 200 μL of 40 mM HEPES (pH 7.0) reaction buffer containing 0.1 mM PAR. The formation of a PAR2-Zn^2+ complex was monitored at 500 nm with a UV/VIS spectrophotometer (Agilent).
# The total zinc content of the purified GST-TNKS1 PARP protein used in the assay was determined by adding 0.5 mM p-chloromercuribenzoic acid to a reaction mixture.
# [8] = target: recombinant TNKS1 PARP domain (amino acids of 1023-1327) (Homo sapiens, UniProt O95271); conditions: incubation with H2O2; FIG. 48
# Protocol: (§4) Immunocomplex-bound beads were incubated at 25° C. for 30 minutes in 40 μL of assay buffer (50 mM Tris-HCl, pH 8.0, 4 mM MgCl2) containing 4 μCi of γ-^32[P]-NAD^+. The reaction was stopped by adding 2×SDS sample buffer. The sample was boiled and separated using an SDS denaturing gel.
# (§5) The gel was dried under vacuum and radiographed on an imaging plate. Radioactivity recorded on the plate was read and quantified by Fujifilm Bio-imaging Analyzer System (BAS)-3000.
# [9] = tested on: TNKS; conditions: FIG. 40
# Protocol: as §4, §5
# [10] = tested on: Axin1; assay: Axin1 immunoprecipitation, PARsylation and ubiquitination blot; format: cell-based, human; conditions: cells of the control, HT29 and SW480
# Protocol: as §1, §2, §3
# Chain of recombinant TNKS1 PARP domain (amino acids of 1023-1327) (O95271 1023-1327): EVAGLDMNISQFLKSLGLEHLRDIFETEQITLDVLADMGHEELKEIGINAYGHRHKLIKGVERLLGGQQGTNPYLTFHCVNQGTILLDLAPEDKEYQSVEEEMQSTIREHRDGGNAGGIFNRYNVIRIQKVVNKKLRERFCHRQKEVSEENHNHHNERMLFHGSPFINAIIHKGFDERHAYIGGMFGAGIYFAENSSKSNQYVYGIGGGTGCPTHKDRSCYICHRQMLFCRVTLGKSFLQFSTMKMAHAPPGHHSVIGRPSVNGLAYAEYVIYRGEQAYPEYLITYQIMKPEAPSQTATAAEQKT
# Chain of GST-TNKS1 PARP protein (O95271 1023-1327): as above
structure (smiles),measurement,setting,value
O=C1Nc2cc(Br)ccc2/C1=C1/Nc2ccccc2/C1=N\O [BIO],phospho-β-catenin in the Axin1-related destruction complex,[1],disappeared
"[O-][n+]1c(CBr)c(CBr)[n+]([O-])c2ccccc21 [Compound 6, 2,3-bis(bromomethyl)quinoxaline 1,4-dioxide]",inhibition of proliferation (colony formation) of RKO cells,[2],not
same,inhibition of proliferation (colony formation) of SW480 cells,[3],sufficiently inhibited
same,tumor growth compared to the control,[4],significantly delayed
same,inhibition of proliferation (colony formation) of HT29 cells,[5],sufficiently inhibited
same,effect on initial rate of PrxI activity (in words),[6]; 100 μM compound,not affected
same,inhibition at 100 µM,"[6]; 100 μM compound, FIG. 63",~50%
same,initial rate of PrxI activity,"[6]; group treated with Conoidin A, 100 μM, control 263.7±45.4",241.7 ± 21 nmol/min
"OO [Compound H2O2, hydrogen peroxide]",TNKS1 PARP proteins that lost zinc ions,[7],≥ 90%
same,polyADP-ribosylation activity of TNKS1 PARP domain,[8],fully inactivated
same,TNKS activity (PARP) in HT29 cells,[9]; HT29 cells,inhibited
same,TNKS activity (PARP) in SW480 cells,[9]; SW480 cells,inhibited
CC(C)C[C@@H](C=O)NC(=O)[C@H](CC(C)C)NC(=O)[C@H](CC(C)C)NC(=O)OCc1ccccc1 [MG132] (Cbz-Leu-Leu-Leu-aldehyde),PARsylated and ubiquitinated Axin1,[10],induces the accumulation
